# From US20120220665A1, “Inhibiting Neurotransmitter Reuptake” (MAYO FOUNDATION FOR MEDICAL EDUCATION AND RESEARCH, priority 2009, published 2012)
# Key:
# [1] = tested on: hSERT (S), hNET (N), hDAT (D); experiment: Comparison of binding potency across the three human transporters; details: for Potency (rank order of transporter binding): S = hSERT, N = hNET, D = hDAT, order by KD; for Potency Range: highest KD / lowest KD among hSERT, hNET, hDAT
# Method: (§1) HEK-293 cells expressing the recombinant hSERT or hDAT were incubated with Dulbecco's modified Eagles medium (MEM) supplemented with 0.1 mM nonessential amino acid solution for MEM, 5% v/v fetal bovine serum and […] penicillin/streptomycin solution. Cells expressing the hNET transporter were incubated with Dulbecco's modified Eagles medium supplemented with 10% v/v fetal bovine serum and 100 U/mL penicillin/streptomycin solution and 2 mM L-glutamine. All cells were grown until 70-80% confluent on 175 cm^2 flasks in a humidified 10% CO2/90% air environment at 37° C., with the selecting antibiotic Geneticin sulfate at […]. The cells were incubated in 10% CO2, 90% air at 37° C. and 100% humidity.
# (§2) Cell membranes containing hSERT, hNET, or hDAT were prepared from the cell lines to assay ligand binding for each of the transporters. […] The washed cells were incubated for 5 minutes at 37° C. in 10 mL solution 1 containing 100 mM ethylene glycol-bis N,N,N′,N′-tetraacetic acid (EGTA). The cells were then scraped from the flask surface with a rubber spatula, placed into a centrifuge tube, and collected by centrifugation at 1000×g for 5 minutes at 4° C. The resulting supernatant was discarded, and the cell pellet was resuspended in 0.5 to1.0 mL of the appropriate binding buffer (described below). The resuspended cell pellet was homogenized using a Polytron for 10 seconds at setting 6. The resulting homogenate was centrifuged at about 36,000×g for 10 minutes at 4° C. The supernatant was discarded, and the pellet was resuspended in the same volume of the appropriate binding buffer and centrifuged again. The supernatant was discarded, and the final pellet containing cell membranes was resuspended in the appropriate binding buffer and stored at −80° C. until use.
# (§3) Radioligand binding assays for the indicated transporters were performed as follows. To assess binding to the cloned hSERT, cells expressing hSERT were homogenized in 50 mM Tris-HCl with 120 mM NaCl and 5 mM KCl (pH 7.4). The binding reaction consisted of 10 μg cell membrane protein, 1.0 nM [^3H]citalopram (citalopram, [N-methyl-^3H], specific activity 79.0 Ci/mmol; PerkinElmer, Boston, Mass.), and varying concentrations of either unlabeled citalopram or the test compound. A reaction to determine non-specific binding consisted of 10 μg cell membrane protein, 0.5 nM [^3H]citalopram, and 1 μM final concentration of unlabeled citalopram. The reactions were incubated at 22° C. for 60 minutes. Following incubation, the reactions were terminated by rapid filtration through separate GF/B filter strips pretreated with 0.2% polyethylenimine in a 48-well Brandel cell harvester. The cell membrane-containing filter strips were then rinsed five times with ice-cold 0.9% NaCl. After rinsing, individual filters were cut from the strip and placed in a scintillation vial containing 6.5 mL of Redi-Safe (Beckman-Coulter, Fullerton, Calif.). Radioactivity was measured with a Beckman liquid scintillation counter (LS 6000TA).
# (§4) To assess binding to the cloned hNET, cells expressing hNET were homogenized in 50 mM Tris-HCl with 300 mM NaCl and 5 mM KCl (pH 7.4). The binding reaction consisted of 5 μg cell membrane protein, 0.5 nM [^3H]nisoxetine (nisoxetine HCl, [N-methyl-^3H], specific activity 82.0 Ci/mmol; Amersham, Arlington Hts., Ill.), and varying concentrations of either unlabeled nisoxetine or the test compound. A reaction to determine non-specific binding consisted of 5 μg cell membrane protein, 0.5 nM [^3H]nisoxetine, and 1 μM final concentration of unlabeled nisoxetine. The reactions were incubated at 22° C. for 60 minutes. Following incubation, the reactions were terminated by rapid filtration through separate GF/B filter strips pretreated with 0.2% polyethylenimine in a 48-well Brandel cell harvester. The cell membrane-containing filter strips were then rinsed five times with ice-cold 0.9% NaCl.
# [2] = target: T1, human serotonin transporter (hSERT) (Homo sapiens, UniProt P31645); experiment: Human transporter radioligand binding, hSERT ([3H]citalopram, HEK-293 membranes); details: HCl salts of test compounds; n ≥ 3, values marked b n = 1; read-out: Equilibrium Dissociation Constant (KD) for Transporter Binding (Geometric Mean; nM ± SEM) hSERT (S)
# T1 construct: expressed in transfected cells; host or cells: HEK-293, stably transfected; membranes
# Method: as §1, §2, §3
# (§5) Following the radioligand binding assays, the data were analyzed using the
# (§6) The program was modified to calculate the Hill coefficient (nH). Data are presented as geometric mean±S.E.M. of at least three independent experiments. One-component models and two-component models were compared using the root mean square error of each fit and the F test.
# [3] = target: T2, human norepinephrine transporter (hNET) (Homo sapiens, UniProt P23975); experiment: Human transporter radioligand binding, hNET ([3H]nisoxetine, HEK-293 membranes); details: HCl salts of test compounds; n ≥ 3, values marked b n = 1; read-out: Equilibrium Dissociation Constant (KD) for Transporter Binding (Geometric Mean; nM ± SEM) hNET (N)
# T2 construct: expressed in transfected cells; host or cells: HEK-293, stably transfected; membranes
# Method: as §1, §2
# as §4, with “NaCl. After rinsing, individual filters were cut from the strip and placed in a scintillation vial containing 6.5 mL of Redi-Safe (Beckman-Coulter, Fullerton, Calif.). Radioactivity was measured with a Beckman liquid scintillation counter (LS 6000TA).” for “NaCl.”
# as §5, §6
# [4] = target: T3, human dopamine transporter (hDAT) (Homo sapiens, UniProt Q01959); experiment: Human transporter radioligand binding, hDAT ([3H]WIN35428, HEK-293 membranes); details: HCl salts of test compounds; n ≥ 3, values marked b n = 1; read-out: Equilibrium Dissociation Constant (KD) for Transporter Binding (Geometric Mean; nM ± SEM) hDAT (D)
# T3 construct: expressed in transfected cells; host or cells: HEK-293, stably transfected; membranes
# Method: as §1, §2
# To assess binding to the cloned hDAT, cells expressing hDAT were homogenized in 50 mM Tris-HCl with 120 mM NaCl (pH 7.4). The binding reaction contained 15 μg cell membrane protein, 1 nM [^3H]WIN35428 (WIN35428, [N-methyl-^3H], specific activity 85.9 Ci/mmol; PerkinElmer, Boston, Mass.), and varying concentrations of either unlabeled WIN35428 or the test compound. A reaction to determine non-specific binding contained 15 μg cell membrane protein, 1 nM [^3H]WIN35428, and 10 μM final concentration of unlabeled WIN35428. The reactions were incubated at 22° C. for 1 hour. Following incubation, the reactions were terminated by rapid filtration through separate GF/B filter strips pretreated with 0.2% polyethylenimine in a 48-well Brandel cell harvester. The cell membrane-containing filter strips were then rinsed five times with ice-cold 0.9% NaCl. After rinsing, individual filters were cut from the strip and placed in a scintillation vial containing 6.5 mL of Redi-Safe (Beckman-Coulter, Fullerton, Calif.). Radioactivity was measured with a Beckman liquid scintillation counter (LS 6000TA).
# as §5, §6
# T3 sequence (Q01959 whole entry): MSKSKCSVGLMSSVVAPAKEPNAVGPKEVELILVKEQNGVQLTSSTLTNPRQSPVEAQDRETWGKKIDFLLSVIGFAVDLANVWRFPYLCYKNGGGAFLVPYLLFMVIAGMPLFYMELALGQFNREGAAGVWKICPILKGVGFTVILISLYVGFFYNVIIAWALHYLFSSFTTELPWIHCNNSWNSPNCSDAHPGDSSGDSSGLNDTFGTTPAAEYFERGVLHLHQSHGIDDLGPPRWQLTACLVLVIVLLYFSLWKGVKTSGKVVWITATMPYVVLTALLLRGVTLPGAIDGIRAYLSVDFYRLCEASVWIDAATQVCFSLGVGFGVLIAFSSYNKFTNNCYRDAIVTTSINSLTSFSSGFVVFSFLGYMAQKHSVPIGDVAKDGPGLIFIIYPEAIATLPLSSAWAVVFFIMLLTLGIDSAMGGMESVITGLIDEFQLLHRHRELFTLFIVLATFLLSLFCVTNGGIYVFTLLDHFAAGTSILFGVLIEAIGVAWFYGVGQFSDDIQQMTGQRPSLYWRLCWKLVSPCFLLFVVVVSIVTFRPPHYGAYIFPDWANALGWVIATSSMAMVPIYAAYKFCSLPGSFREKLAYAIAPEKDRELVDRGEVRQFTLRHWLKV
# T1 sequence (P31645 whole entry): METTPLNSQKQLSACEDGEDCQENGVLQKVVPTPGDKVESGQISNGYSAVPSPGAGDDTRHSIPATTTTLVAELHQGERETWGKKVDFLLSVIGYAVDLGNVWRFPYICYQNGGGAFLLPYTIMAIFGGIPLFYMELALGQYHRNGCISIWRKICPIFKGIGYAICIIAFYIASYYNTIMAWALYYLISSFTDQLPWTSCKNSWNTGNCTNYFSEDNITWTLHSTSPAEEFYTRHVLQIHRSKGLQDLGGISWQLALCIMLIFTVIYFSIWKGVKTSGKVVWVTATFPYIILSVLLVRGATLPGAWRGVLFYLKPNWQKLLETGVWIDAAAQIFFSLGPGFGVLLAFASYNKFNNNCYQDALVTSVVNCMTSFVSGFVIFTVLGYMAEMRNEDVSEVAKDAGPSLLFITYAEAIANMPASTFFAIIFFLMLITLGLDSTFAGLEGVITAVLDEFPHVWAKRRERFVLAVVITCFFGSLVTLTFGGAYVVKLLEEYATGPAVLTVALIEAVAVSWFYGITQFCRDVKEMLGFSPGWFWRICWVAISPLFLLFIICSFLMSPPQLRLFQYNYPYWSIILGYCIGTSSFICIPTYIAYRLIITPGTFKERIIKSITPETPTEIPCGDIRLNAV
# T2 sequence (P23975 whole entry): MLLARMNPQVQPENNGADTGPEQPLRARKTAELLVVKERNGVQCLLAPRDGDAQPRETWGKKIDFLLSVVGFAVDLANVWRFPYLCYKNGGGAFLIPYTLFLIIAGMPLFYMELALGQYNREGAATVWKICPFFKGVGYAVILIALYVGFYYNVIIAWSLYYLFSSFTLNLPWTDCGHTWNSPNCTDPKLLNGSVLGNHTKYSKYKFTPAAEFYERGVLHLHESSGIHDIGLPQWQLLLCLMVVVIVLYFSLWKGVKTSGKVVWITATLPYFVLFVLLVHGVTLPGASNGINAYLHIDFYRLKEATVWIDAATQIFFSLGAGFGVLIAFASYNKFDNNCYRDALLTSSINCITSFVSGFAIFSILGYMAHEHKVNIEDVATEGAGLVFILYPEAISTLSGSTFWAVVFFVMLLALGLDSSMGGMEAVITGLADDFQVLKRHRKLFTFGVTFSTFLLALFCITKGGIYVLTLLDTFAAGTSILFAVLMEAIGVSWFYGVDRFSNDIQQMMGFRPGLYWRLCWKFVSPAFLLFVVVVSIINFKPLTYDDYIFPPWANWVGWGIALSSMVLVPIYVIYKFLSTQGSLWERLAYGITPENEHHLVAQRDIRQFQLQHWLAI
SMILES,Potency (rank order of transporter binding) [1],Kd [2],Kd [3],Kd [4],Potency Range [1]
"CCOc1ccccc1OC(c1ccccc1)C1CNCCO1 (stereo not shown) [Reboxetine, reference compound]",N > S > D,,,,
"CNC[C@H](c1ccc2ccccc2c1)[C@@H](O)c1ccc(F)cc1 [MCJ001-4F—Ph—OH-RS/SR, (1R,2S)-1-(4-fluorophenyl)-3-(methylamino)-2-(naphthalen-2-yl)propan-1-ol]",S > N > D,27 ± 4 nM,49 ± 4 nM,250 ± 40 nM,9
"CNC[C@H](c1ccccc1)[C@@H](O)c1ccc2ccccc2c1 [MCJ001-NA-Ph—OH-RS/SR, (1R,2S/1S,2R)-3-(methylamino)-1-(naphthalen-2-yl)-2-phenylpropan-1-ol]",S > N > D,75 ± 2 nM,7620 nM,8900 ± 20 nM,120
"CCN(CC)C(=O)C1(c2ccccc2)CC1CN (stereo not shown) [Milnacipran, reference compound]",S > N > D,,,,
"CNC[C@H](c1ccc2ccccc2c1)[C@H](O)c1ccc(F)cc1 [MCJ001-4F—Ph—OH-SS/RR, (1S,2S)-1-(4-fluorophenyl)-3-(methylamino)-2-(naphthalen-2-yl)propan-1-ol]",N > S > D,33 ± 5 nM,11 ± 1 nM,90 ± 10 nM,8
"CNCC[C@H](Oc1cccc2ccccc12)c1cccs1 [Duloxetine, reference compound]",S > N > D,,,,
"CNCC(c1ccccc1)C(O)c1ccc(Br)cc1 [MCJ001-Br—Ph—OH-RS/SR, (1R,2S/1S,2R)-1-(4-bromophenyl)-3-(methylamino)-2-phenylpropan-1-ol]",D > S > N,3320 nM,4500 nM,1520 nM,3
"CNC[C@H](c1ccc2ccccc2c1)[C@H](O)c1ccccc1 [PRC200-SS, (1S,2S)-3-(methylamino)-2-(naphthalen-2-yl)-1-phenylpropan-1-ol]",N > S > D,3.8 ± 0.3 nM,0.6 ± 0.2 nM,27 ± 3 nM,45
"CN(C)CCCN1c2ccccc2CCc2ccccc21 [Imipramine, reference compound]",S > N > D,,,,
"CN1Cc2c(N)cccc2C(c2ccccc2)C1 (stereo not shown) [Nomifensine, reference compound]",N > D > S,,,,
"CNC[C@@H](c1ccccc1)[C@@H](O)c1ccc2ccccc2c1 [MCJ001-NA-Ph—OH-SS/RR, (1S,1R/2S,2R)-3-(methylamino)-1-(naphthalen-2-yl)-2-phenylpropan-1-ol]",S > > N > D,16 ± 2 nM,1390 nM,5800 ± 400 nM,370

# Now from value to molecule:
Potency (rank order of transporter binding) [1],Kd [2],Kd [3],Kd [4],Potency Range [1],SMILES
S > N > D,8.3 ± 0.9 nM,50 ± 8 nM,270 ± 30 nM,32,"CN(C)C[C@H](c1ccc2ccccc2c1)[C@H](Cl)c1ccccc1 [MCJ002-Cl-SS, (2S,3S)-3-chloro-N,N-dimethyl-2-(naphthalen-2-yl)-3-phenylpropan-1-amine]"
,7300 nM,,28400 nM,,"CNCC(c1ccccc1)C(O)c1ccc(Br)cc1 [MCJ001-Br—Ph—OH-SS/RR, (1S,2S/1R,2R)-1-(4-bromophenyl)-3-(methylamino)-2-phenylpropan-1-ol]"
S > N > D,7 ± 0.5 nM,45 ± 3 nM,280 ± 20 nM,40,"CN(C)C[C@H](c1ccc2ccccc2c1)[C@@H](F)c1ccccc1 [MCJ002-F-RS, (2S,3R)-3-fluoro-N,N-dimethyl-2-(naphthalen-2-yl)-3-phenylpropan-1-amine]"
D > N > S,1260 nM,514 nM,107 nM,12,"CNC[C@H](c1ccccc1)[C@H](O)c1ccc(F)cc1 [MCJ001-F—Ph—OH-SS/RR, (1S,2S)-1-(4-fluorophenyl)-3-(methylamino)-2-phenylpropan-1-ol]"
N > S > D,50 ± 3 nM,29 ± 1 nM,180 ± 20 nM,6,"CNC[C@H](c1ccc2ccccc2c1)[C@@H](OCCCCCCCO[C@@H](c1ccccc1)[C@H](CNC)c1ccc2ccccc2c1)c1ccccc1 [MCJ001-Dimer7-SS, (2S,2′S,3R,3′R)-3,3′-(heptane-1,7-diylbis(oxy))bis(N-methyl-2-(naphthalen-2-yl)-3-phenylpropan-1-amine)]"
S > N > D,7.4 ± 0.9 nM,90 ± 10 nM,390 ± 30 nM,53,"CN(C)C[C@H](c1ccc2ccccc2c1)[C@@H](Cl)c1ccccc1 [MCJ002-Cl-RS, (2S,3R)-3-chloro-N,N-dimethyl-2-(naphthalen-2-yl)-3-phenylpropan-1-amine]"
N > S > D,11900 nM,2660 nM,75200 nM,28,"CNC[C@H](c1ccccc1)[C@@H](O)c1ccc(F)cc1 [MCJ001-F—Ph—OH-RS/SR, (1R,2S)-1-(4-fluorophenyl)-3-(methylamino)-2-phenylpropan-1-ol]"
